# Measured values published in patent US20130225534A1, “METHODS FOR TREATING AN INORGANIC SLURRY” (Rhodia Operations, priority 2003, published 2013).
# Tested on: bacterial contamination of calcium carbonate-based slurry
# Settings: THPS solution added to calcium carbonate-based slurry; in 2 hours
substance,measurement,value
tetrakis(hydroxymethyl)phosphonium sulphate [THPS],reduction in bacterial count,10^4
